Biological target: NR1/NR2B (Homo sapiens (Human), UniProt Q05586+Q13224)
Experiment: Cell assay: FDSS Ca2+ influx inhibition in HEK293 cells expressing NR1/NR2B;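 note: Fluo-8 Ca2+ signal read on Hamamatsu FDSS 6000 after glutamate, glycine and Ca2+ challenge following 10 min compound preincubation, end/baseline fluorescence ratio compared with MK801 control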
Conditions: Ca2+ influx
[1] = Binned Activity, HEK293 cells expressing NR1/NR2B, binned NR2B NAM IC50
[2] = NR2B NAM IC50, HEK293 cells expressing NR1/NR2B

NR1/NR2B, sequence (Q13224 27-1484, other chains not shown): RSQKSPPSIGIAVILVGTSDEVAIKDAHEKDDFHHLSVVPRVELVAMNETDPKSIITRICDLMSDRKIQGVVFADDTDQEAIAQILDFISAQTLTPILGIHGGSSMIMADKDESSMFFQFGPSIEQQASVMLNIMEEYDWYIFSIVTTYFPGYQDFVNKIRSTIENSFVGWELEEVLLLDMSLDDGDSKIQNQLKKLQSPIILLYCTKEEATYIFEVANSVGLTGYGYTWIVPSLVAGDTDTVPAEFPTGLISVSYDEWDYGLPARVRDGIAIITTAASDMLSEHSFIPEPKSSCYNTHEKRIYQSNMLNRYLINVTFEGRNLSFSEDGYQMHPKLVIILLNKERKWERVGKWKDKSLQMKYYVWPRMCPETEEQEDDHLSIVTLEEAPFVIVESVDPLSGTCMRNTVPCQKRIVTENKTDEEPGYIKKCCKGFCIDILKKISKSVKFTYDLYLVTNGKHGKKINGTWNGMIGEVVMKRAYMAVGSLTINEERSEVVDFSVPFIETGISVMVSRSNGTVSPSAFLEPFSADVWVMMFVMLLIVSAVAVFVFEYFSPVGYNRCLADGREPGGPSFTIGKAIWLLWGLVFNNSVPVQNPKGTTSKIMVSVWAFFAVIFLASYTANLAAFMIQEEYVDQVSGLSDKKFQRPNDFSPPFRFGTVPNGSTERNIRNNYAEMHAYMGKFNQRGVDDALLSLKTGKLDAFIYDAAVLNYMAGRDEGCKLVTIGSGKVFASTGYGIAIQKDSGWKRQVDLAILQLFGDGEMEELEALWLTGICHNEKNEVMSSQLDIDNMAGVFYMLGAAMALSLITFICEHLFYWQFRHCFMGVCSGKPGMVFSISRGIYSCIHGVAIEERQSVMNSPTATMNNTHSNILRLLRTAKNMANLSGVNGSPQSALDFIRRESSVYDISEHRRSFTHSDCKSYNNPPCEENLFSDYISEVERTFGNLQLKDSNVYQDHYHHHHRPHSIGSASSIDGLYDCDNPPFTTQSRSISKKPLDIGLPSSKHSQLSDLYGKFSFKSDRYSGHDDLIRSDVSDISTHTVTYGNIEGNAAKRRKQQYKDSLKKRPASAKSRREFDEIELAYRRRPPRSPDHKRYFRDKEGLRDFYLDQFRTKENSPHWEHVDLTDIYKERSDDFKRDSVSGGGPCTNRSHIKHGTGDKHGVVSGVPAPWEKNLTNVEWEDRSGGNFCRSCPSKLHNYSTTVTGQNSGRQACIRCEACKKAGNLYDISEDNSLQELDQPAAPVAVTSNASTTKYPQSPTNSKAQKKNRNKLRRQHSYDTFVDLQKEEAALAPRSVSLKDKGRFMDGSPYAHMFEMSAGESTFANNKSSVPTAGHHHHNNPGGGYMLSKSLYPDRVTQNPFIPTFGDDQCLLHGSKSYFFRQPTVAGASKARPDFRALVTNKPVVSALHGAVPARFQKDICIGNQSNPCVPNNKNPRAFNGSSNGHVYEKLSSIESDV

Row | Compound | IC50 [1] | IC50 [2]
1 | COc1cccc([C@]2(O)C[C@H]3CN(C(=O)Nc4ccc(C)cc4C)C[C@H]3C2)c1 [Example 49] | > 10 µM | ≥ 10 µM
2 | COc1cccc([C@]2(O)C[C@H]3CN(C(=O)Nc4ccc(C)cc4)C[C@H]3C2)c1 [Example 14] | > 10 µM | ≥ 10 µM
3 | COC(=O)c1ccc(NC(=O)N2C[C@@H]3C[C@@](O)(c4ccc(C(C)(C)C)cc4)C[C@@H]3C2)cc1 [Example 50] | > 10 µM | 
4 | OC(CN1C[C@@H]2C[C@@](O)(c3ccccc3)C[C@@H]2C1)c1cccc(F)c1 (mixture of isomers) [Example 64, rac-2-[2-(3-fluorophenyl)-2-hydroxyethyl]-5-phenyl-octahydrocyclopenta[c] pyrrol-5-ol] | > 10 µM | ≥ 10 µM
5 | CC(C)(C)c1ccc([C@]2(O)C[C@H]3CN(CC(O)c4cccc(C(F)(F)F)c4)C[C@H]3C2)cc1 (mixture of isomers) [Example 70, rac-5-(4-(tert-butyl)phenyl)-2-(2-hydroxy-2-(3-(trifluoromethyl)phenyl)ethyl)octahydrocyclo-penta[c]pyrrol-5-ol] | > 10 µM | ≥ 10 µM
6 | COc1cccc(NC(=O)N2C[C@@H]3C[C@@](O)(c4ccccc4C)C[C@@H]3C2)c1 | > 10 µM | ≥ 10 µM
7 | COc1cccc([C@]2(O)C[C@H]3CN(C(=O)Nc4cccc(Cl)c4)C[C@H]3C2)c1 [Example 15] | > 10 µM | 
8 | Cc1ccccc1[C@]1(O)C[C@H]2CN(C(=O)Nc3cccc(C#N)c3)C[C@H]2C1 [Example 31, N-(3-cyanophenyl)-5-hydroxy-5-(2-methylphenyl)-octahydrocyclopenta[c] pyrrole-2-carboxamide] | > 10 µM | 
9 | N#Cc1cccc(NC(=O)N2C[C@@H]3C[C@@](O)(c4ccc(F)cc4)C[C@@H]3C2)c1 [Example 40] | > 10 µM | 
10 | CC(C(=O)c1ccc(O)cc1)N1C[C@@H]2C[C@@](O)(Cc3ccccc3)C[C@@H]2C1 (mixture of isomers) [Example 293, rac-2-((3aR,5r,6aS)-5-benzyl-5-hydroxyhexahydrocyclo-penta[c]pyrrol-2(1H)-yl)-1-(4-hydroxyphenyl)propan-1-one] |  | 0.1 µM
11 | COc1ccc(C(O)CN2C[C@@H]3C[C@@](O)(c4ccccc4)C[C@@H]3C2)cc1 (mixture of isomers) [Example 66, rac-2-[2-hydroxy-2-(4-methoxyphenyl)ethyl]-5-phenyl-octahydrocyclopenta[c] pyrrol-5-ol] | > 10 µM | ≥ 10 µM
12 | Cc1ccccc1[C@]1(O)C[C@H]2CN(CC(O)c3cccc(C(F)(F)F)c3)C[C@H]2C1 (mixture of isomers) [Example 72, rac-2-{2-hydroxy-2-[3-(trifluoromethyl)phenyl]ethyl}-5-(2-methylphenyl)-octahydrocyclopenta[c] pyrrol-5-ol] | > 10 µM | ≥ 10 µM
13 | CC(C(O)c1ccc(O)cc1)N1C[C@@H]2C[C@@](O)(c3ccccc3)C[C@@H]2C1 (mixture of isomers) [Example 91, rac-2-(1-hydroxy-1-(4-hydroxyphenyl)propan-2-yl)-5-phenyloctahydrocyclo-penta[c]pyrrol-5-ol] | > 10 µM | ≥ 10 µM
14 | O=C(Nc1cccc(Cl)c1)N1C[C@@H]2C[C@@](O)(c3ccc(F)cc3)C[C@@H]2C1 [Example 39] | > 10 µM | ≥ 10 µM
15 | OC(CN1C[C@@H]2C[C@@](O)(c3ccc(F)cc3)C[C@@H]2C1)c1ccc(Cl)cc1Cl (mixture of isomers) [Example 76, rac-2-[2-(2,4-dichlorophenyl)-2-hydroxyethyl]-5-(4-fluorophenyl)-octahydrocyclopenta[c] pyrrol-5-ol] | > 10 µM | ≥ 10 µM
16 | COc1cccc(C(O)CN2C[C@@H]3C[C@@](O)(c4cccc(OC)c4)C[C@@H]3C2)c1 (mixture of isomers) [Example 77, rac-2-[2-hydroxy-2-(3-methoxyphenyl)ethyl]-5-(3-methoxyphenyl)-octahydrocyclopenta[c] pyrrol-5-ol] | > 10 µM | ≥ 10 µM

Results, then the molecule that gave them:

Row | IC50 [1] | IC50 [2] | Compound
17 |  | 0.0349 µM | Cc1ccccc1C[C@]1(O)C[C@H]2CN(CC(O)c3ccc(O)cc3)C[C@H]2C1 (mixture of isomers) [Example 185, rac-(3aR,5r,6aS)-2-(2-hydroxy-2-(4-hydroxyphenyl)ethyl)-5-(2-methylbenzyl)octahydro-cyclopenta[c]pyrrol-5-ol]
18 |  | 0.41 µM | Oc1ccc(C(O)CN2C[C@@H]3C[C@@](O)(CC4CCCCC4)C[C@@H]3C2)cc1 (mixture of isomers) [Example 209, rac-(3aR,5R,6aS)-5-(cyclohexylmethyl)-2-[2-hydroxy-2-(4-hydroxyphenyl)ethyl]-octahydrocyclopenta[c] pyrrol-5-ol]
19 |  | 0.0425 µM | Cc1cc(F)ccc1C[C@]1(O)C[C@H]2CN(CC(O)c3ccc(O)cc3)C[C@H]2C1 (mixture of isomers) [Example 254, rac-(3aR,5r,6aS)-5-(4-fluoro-2-methylbenzyl)-2-(2-hydroxy-2-(4-hydroxyphenyl)ethyl) octahydrocyclopenta[c] pyrrol-5-ol]
20 | > 10 µM | ≥ 10 µM | Oc1ccc(C(O)CN2C[C@@H]3C[C@@](O)(c4cccnc4F)C[C@@H]3C2)nc1 (mixture of isomers) [Example 251, rac-(3aR,6aS)-5-(2-fluoropyridin-3-yl)-2-(2-hydroxy-2-(5-hydroxypyridin-2-yl)ethyl)octahydrocyclo-penta[c]pyrrol-5-ol]
21 | < 0.1 µM | 0.0364 µM | Oc1ccc(C(O)CN2C[C@@H]3C[C@](F)(Cc4ccccc4)C[C@@H]3C2)cc1F (mixture of isomers) [Example 316, rac-4-(2-((3aR,5s,6aS)-5-benzyl-5-fluoro-hexahydrocyclopen-ta[c]pyrrol-2(1H)-yl)-1-hydroxyethyl)-2-fluorophenol]
22 |  | 0.036 µM | Oc1ccc(C(O)CN2C[C@@H]3C[C@@](O)(Cc4ccc(C(F)(F)F)cc4)C[C@@H]3C2)nc1 (mixture of isomers) [Example 217, rac-6-{2-[(3aR,5R,6aS)-5-hydroxy-5-{[4-(trifluoromethyl)phenyl]methyl}-octahydrocyclopenta[c]pyrrol-2-yl]-1-hydroxyethyl}pyridin-3-ol]
23 | < 0.1 µM | 0.0269 µM | Oc1ccc(C(O)CN2C[C@@H]3C[C@@](F)(Cc4ccccc4)C[C@@H]3C2)cc1 (mixture of isomers) [Example 313, rac-4-(2-((3aR,5r,6aS)-5-benzyl-5-fluoro-hexahydrocyclopen-ta[c]pyrrol-2(1H)-yl)-1-hydroxyethyl)phenol]
24 |  | 0.0981 µM | Oc1c(F)cc(C(O)CN2C[C@@H]3C[C@@](O)(Cc4ccccc4)C[C@@H]3C2)cc1F (mixture of isomers) [Example 160, rac-(3aR,5r,6aS)-5-benzyl-2-(2-(3,5-difluoro-4-hydroxyphenyl)-2-hydroxyethyl)octahydro-cyclopenta[c]pyrrol-5-ol]
25 | 1 to 10 µM | 3.4 µM | Oc1cnc(C(O)CN2C[C@@H]3C[C@@](O)(Cc4ccccc4)C[C@@H]3C2)nc1 (mixture of isomers) [Example 203, rac-2-{2-[(3aR,5R,6aS)-5-benzyl-5-hydroxy-octahydrocyclopenta[c]pyrrol-2-yl]-1-hydroxyethyl}pyrimidin-5-ol]
26 | < 0.1 µM | 0.0117 µM | Oc1ccc(C(O)CN2C[C@H]3C[C@H](Cc4ccccc4)C[C@H]3C2)cc1 (mixture of isomers) [Example 306, rac-4-{2-[(3aR,5R,6aS)-5-benzyl-octahydrocyclopenta[c]pyrrol-2-yl]-1-hydroxyethyl}phenol]
27 |  | 2.05 µM | CC(C(O)c1ccc(O)cc1)N1C[C@@H]2C[C@@](O)(CCc3ccccc3)C[C@@H]2C1 (mixture of isomers) [Example 320, rac-2-(1-hydroxy-1-(4-hydroxyphenyl)propan-2-yl)-5-phenethyl-octahydrocyclo-panta[c]pyrrol-5-ol]
28 |  | 0.0503 µM | Oc1ccc(C(O)CN2C[C@@H]3C[C@@](O)(Cc4ccccc4Cl)C[C@@H]3C2)nc1 (mixture of isomers) [Example 246, rac-(3aR,5r,6aS)-5-(2-chlorobenzyl)-2-(2-hydroxy-2-(5-hydroxypyridin-2-yl)ethyl)octahydrocyclo-penta[c]pyrrol-5-ol]
29 | > 10 µM | ≥ 10 µM | Oc1ccc(C(O)CN2C[C@@H]3C[C@@](O)(CC4CC4)C[C@@H]3C2)cc1 (mixture of isomers) [Example 211, rac-(3aR,5r,6aS)-5-(cyclopropylmethyl)-2-(2-hydroxy-2-(4-hydroxyphenyl)ethyl) octahydrocyclopenta [c]pyrrol-5-ol]
30 | < 0.1 µM | 0.043 µM | CC(O)(CN1CC2CC(O)(Cc3ccccc3)CC2C1)c1ccc(O)cc1 (racemic) [Example 280, rac-(3aR,5R,6aS)-5-benzyl-2-[2-hydroxy-2-(4-hydroxyphenyl)propyl]-octahydrocyclopenta[c] pyrrol-5-ol]
31 | 0.1 to 1 µM | 0.139 µM | Oc1ccc(C(O)CN2C[C@H]3CN(Cc4ccccc4)C[C@H]3C2)cc1 (mixture of isomers) [Example 327, rac-4-(2-(5-benzylhexahydropyrrolo [3,4-c]pyrrol-2(1H)-yl)-1-hydroxyethyl)phenol]
32 | > 10 µM | ≥ 10 µM | CC(C(=O)c1ccc(O)cc1)N1C[C@@H]2C[C@@](O)(c3ccc(C(C)(C)C)cc3)C[C@@H]2C1 (mixture of isomers) [Example 93, rac-2-[5-(4-tert-butylphenyl)-5-hydroxy-octahydrocyclopenta[c]pyrrol-2-yl]-1-(4-hydroxyphenyl)propan-1-one]
33 |  | 3.15 µM | Oc1ccc(C(O)CN2C[C@@H]3C[C@@](O)(Cc4ccncc4)C[C@@H]3C2)cc1 (mixture of isomers) [Example 227, rac-(3aR,5r,6aS)-2-(2-hydroxy-2-(4-hydroxyphenyl)ethyl)-5-(pyridin-4-ylmethyl)octahydrocyclo-penta[c]pyrrol-5-ol]
34 | > 10 µM | ≥ 10 µM | CC(C)(C)C(=O)Nc1ccc(C(O)CN2C[C@@H]3C[C@@](O)(Cc4ccccc4)C[C@@H]3C2)cn1 (mixture of isomers) [Example 286, rac-N-(5-(2-(5-benzyl-5-hydroxyhexahydrocyclo-penta[c]pyrrol-2(1H)-yl)-1-hydroxyethyl)pyridin-2-yl)pivalamide]
35 |  | 0.0524 µM | O=c1[nH]c2ccc(C(O)CN3C[C@@H]4C[C@@](O)(Cc5ccccc5)C[C@@H]4C3)cc2o1 (mixture of isomers) [Example 154, rac-6-(2-((3aR,5r,6aS)-5-benzyl-5-hydroxyhexahydrocyclo-penta[c]pyrrol-2(1H)-yl)-1-hydroxyethyl)benzo[d] oxazol-2(3H)-one]
